Measured values from patent US20200399250A1, “Pyrimidine Derivatives as Tropomyosin Receptor Kinase A (TRKA) Inhibitors” (BIOMED X GMBH, priority 2017, published 2020).
Entries after “also recorded” stand apart in the source; their conditions may differ.

Assays:
[1] = target: T1, AurA (Homo sapiens, UniProt O14965); assay: KINOMEscan primary screen against AurA; format: binding; conditions: % of control
T1 sequence (O14965 1-403): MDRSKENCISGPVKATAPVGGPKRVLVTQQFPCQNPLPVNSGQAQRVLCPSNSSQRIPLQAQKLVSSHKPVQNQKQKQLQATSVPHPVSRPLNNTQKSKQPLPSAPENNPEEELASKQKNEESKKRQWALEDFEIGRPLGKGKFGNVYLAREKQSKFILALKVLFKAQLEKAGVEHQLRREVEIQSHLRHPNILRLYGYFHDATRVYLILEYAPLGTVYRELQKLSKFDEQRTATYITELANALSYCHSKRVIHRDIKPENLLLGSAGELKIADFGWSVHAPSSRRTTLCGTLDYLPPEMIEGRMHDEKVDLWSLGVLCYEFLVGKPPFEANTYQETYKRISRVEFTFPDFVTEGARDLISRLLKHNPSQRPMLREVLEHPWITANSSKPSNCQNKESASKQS
Protocol: Compounds were initially tested in a primary screen against TrkA (at 10 and 100 nM) and AurA (at 100 nM and 1 μM) using the KINOMEscan technology from DiscoverX Corporation, Fremont, Calif., USA (https://www.discoverx.com/services/drug-discovery-development-services/kinase-profiling/kinomescan).

[2] = tested on: C57Bl/6 mice; assay: Toxicity after i.v. injection in mice; format: in vivo; conditions: for Toxicity: single animal
Protocol: . Dimethylsulfoxide (DMSO) from J. T. Baker (Germany), Cremophor EL (Polyoxyethyleneglycerol triricinoleate 35 castor oil) from BASF (Germany), and Saline solution 0.9% from B. Braun (Germany) were used in this study. Two types of formulations were prepared: a formulation with a high dose of compound a1 (9 mM) and a formulation with a low dose of compound a1 (1.8 mM); c.f. Tables 5 and 6. […]. The formulation with the high dose of a1 was prepared using 9% a1-DMSO stock solution, 10% Cremophor EL, and 81% saline. The formulation with the low dose of a1 contained 1.8% a1-DMSO stock solution, 5% Cremophor EL, and 93.2% saline; c.f. FIG. 2.
Experiments were carried out in accordance with the EU Directive 86/609/EEC on the protection of animals used for scientific purposes. […]; c.f. Table 6. After injection, the mice were returned to their home cages, and after 1 hour, the mice were anaesthetized with isoflurane. Terminal blood samples were collected using a 1 ml syringe (20-G needle, B. Braun). The blood was immediately transferred into a 1.3 ml heparin-coated tube (Sarstedt). Plasma was collected by centrifugation at 1500 g for 15 minutes. The supernatant was placed in a 1.5 ml tube on dry ice and stored at −20° C.

[3] = target: full-length human TrkA receptor (Homo sapiens, UniProt P04629); assay: PathHunter cellular functional assay, antagonism of β-NGF; format: cell-based; conditions: antagonism at EC80 (0.03 μg/ml) of β-NGF; read-out: Cellular assay [RC50]
full-length human TrkA receptor, sequence (P04629 33-796): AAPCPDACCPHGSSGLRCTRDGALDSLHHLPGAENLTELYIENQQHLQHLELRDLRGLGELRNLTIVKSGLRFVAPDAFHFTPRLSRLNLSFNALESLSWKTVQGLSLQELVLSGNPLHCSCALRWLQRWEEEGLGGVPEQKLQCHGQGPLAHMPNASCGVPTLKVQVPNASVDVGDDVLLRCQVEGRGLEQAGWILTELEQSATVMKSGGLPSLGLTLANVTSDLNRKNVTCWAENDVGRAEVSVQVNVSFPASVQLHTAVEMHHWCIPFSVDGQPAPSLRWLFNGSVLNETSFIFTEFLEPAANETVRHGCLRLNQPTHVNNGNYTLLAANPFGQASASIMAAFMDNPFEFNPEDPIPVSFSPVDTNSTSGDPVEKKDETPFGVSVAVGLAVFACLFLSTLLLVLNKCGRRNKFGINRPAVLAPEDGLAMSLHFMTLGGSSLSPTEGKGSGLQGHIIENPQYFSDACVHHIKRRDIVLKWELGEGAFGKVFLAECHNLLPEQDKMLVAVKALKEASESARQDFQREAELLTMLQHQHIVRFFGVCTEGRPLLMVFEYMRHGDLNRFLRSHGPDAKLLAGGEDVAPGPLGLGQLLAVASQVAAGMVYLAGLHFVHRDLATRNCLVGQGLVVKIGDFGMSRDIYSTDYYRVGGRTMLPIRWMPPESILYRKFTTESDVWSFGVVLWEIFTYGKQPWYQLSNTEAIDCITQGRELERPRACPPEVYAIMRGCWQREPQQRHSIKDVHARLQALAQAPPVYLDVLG
full-length human TrkA receptor, sequence (P01138 122-241 partner): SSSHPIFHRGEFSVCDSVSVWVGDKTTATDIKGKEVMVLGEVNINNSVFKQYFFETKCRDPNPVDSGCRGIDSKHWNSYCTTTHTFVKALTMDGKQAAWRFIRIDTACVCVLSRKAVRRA
Text: The two compounds a1 and b7 were additionally tested in a functional assay using the PathHunter® technology (DiscoverX Corporation, Freemont, Calif., USA; https://www.discoverx.com/technologies-platforms/enzyme-fragment-complementation-technoloqy/cell-based-efc-assays/protein-protein-interactions/kinases-cell-based-(rtk-ctk)). In this assay, the full-length human TrkA receptor (i.e. including ligand-binding and kinase domains) is expressed as a C-terminal (intracellular) fusion with a small peptide epitope, called Prolink™ (PK). Furthermore, a SH2 domain containing protein (i.e. Shc1) is co-expressed with a larger Enzyme Acceptor (EA) fragment. Activation of the TrkA receptor by adding the agonist ligand (β-NGF), leads to the auto-phosphorylation of the kinase and subsequent binding of the Shc1-EA protein. That recruitment results in an active B-galactosidase enzyme that is detected by addition of a chemiluminescent substrate.
Compounds were tested for antagonism using EC80 concentration (i.e. 0.03 μg/ml) of β-NGF. Data was normalized to the maximal and minimal response observed in the presence of EC80 agonist ligand (3-NGF) and vehicle (DMSO, final concentration 1%), respectively.

[4] = target: TrkA; assay: KdELECT Kd measurement (KINOMEscan), TrkA; format: binding
Protocol: (§1) Kd measurements were done via the KdELECT product service from DiscoverX Corporation (Freemont, Calif., USA) which also employs the KINOMEscan technology. Here, inhibitor binding constants (Kd values) are calculated from duplicate 11-point dose-response curves.

[5] = target: TrkA (Homo sapiens, UniProt P04629); assay: KdELECT Kd measurement (KINOMEscan), TrkA; format: binding
TrkA (Homo sapiens, UniProt P04629), sequence (P04629 33-796): as the sequence (P04629 33-796) above
Protocol: as §1

SMILES: CN1CCN(c2cc(Nc3cc(-c4cccc(F)c4)[nH]n3)nc(Sc3ccccc3)n2)CC1 [a1, N-[5-(3-fluorophenyl)-1H-pyrazol-3-yl]-6-(4-methylpiperazin-1-yl)-2-(phenylsulfanyl)pyrimidin-4-amine]
- % Ctrl. AurA @100 nM ([1]; 100 nM compound): 97 % Ctrl.
- % Ctrl. AurA @1 μM ([1]; 1 μM compound): 92 % Ctrl.
- signs of toxicity ([2]; 5 and 25 mg/kg i.v., all animals): none of the animals showed any obvious signs of toxicity; also recorded: none of the animals showed any toxic sign
- Toxicity ([2]; a1_high formulation, 25 mg/kg i.v.): None
- Toxicity ([2]; a1_low formulation, 5 mg/kg i.v.): None
- IC50 [3]: 26 nM
- ΔpKd ([4]; TrkA pKd versus AurA pKd): 3.3
- improved selectivity against off-target AurA ([4]; TrkA versus AurA): 10,000 fold
- TrkA [pKd] [5]: 8.6
- Kd ([5]; duplicate 11-point dose-response curves): 2.6 nM
